Test results as given in patent US6599548B2, “Ambient stable beverage” (priority 2000, dated 2003).
Converted amounts (≈) assume the structure as drawn. Read-outs that look alike come from different tables or passages of the source.

Experiments:
Assay type in all cases: cell-based
fungi = assay: Fungicidal activity of pasteurisation adjuncts at 50° C. versus 30° C. (MIC50); settings: for Importance: rating of importance as pasteurisation adjunct
Protocol: In the table the minimum inhibitory concentration (MIC) is given for each compound as well as the molecular weight (M.W.), the logPoct and a rating of its importance. […] The logPoct, that is the logarithm of the partition coefficient of the relevant compound in octanol and thus a measure of its […], was determined using […]™ software from the CHEMOFFICE ULRA ENHANCED 2000™ software package (version 5.5) that is commercially available from CambridgeSoft.

[1] = Minimum inhibitory concentration (MIC) of antimicrobials / essential oils
Excerpt: The minimum inhibitory concentration (MIC) is given for each compound.
In each case the respective minimum inhibitory concentration (MIC) and their specific preferred concentration is also given.

[2] = test system: yeast Saccharomyces cerevisiae X2180-1B; assay: Yeast growth in Ready to Drink tea (0.14% tea, pH 3.4) after 2 min at temperature, OD 600 nm at 14 days; settings: RTD tea; for prevention of yeast growth by low levels of the adjunct: adjunct 0-12 ppm in combination with cinnamic acid 0-60 ppm
[3] = read-out: MIC50 in ppm (in brackets under the mM value)
[4] = minimum inhibitory concentration, fungicidal activity when heated to 50° C.
[5] = Table I, preferred essential oils
[6] = Table II, particularly preferred essential oils
[7] = 20° C., adjunct 0-12 ppm, cinnamic acid 0-60 ppm

Row | Compound | Importance (fungi) | also measured
1 | CCCCCCCCCC=CC=O [2-Dodecenal] | High | MIC50 (fungi; [3]): < 9 µg/mL
2 | CC(C)C(=O)OCCOc1ccccc1 [2-Phenoxylethyl isobutyrate] | High | –
3 | CCCCCCCCCCC=CC=O [2-Tridecenal] | High | MIC50 (fungi; [3]): < 9.8 µg/mL
4 | CCCCCCCCCC(C)=O [2-Undecanone] | High | –
5 | C=CCOC(=O)CCC1CCCCC1 [Allyl cyclohexanepropionate] | High | –
6 | CCCCCOC(=O)CCCCC [Amyl hexanoate] | High | –
7 | O=C(c1ccccc1)C(O)c1ccccc1 (centres unmarked) [Benzoin] | 10 | –
8 | CCCCCCC(=O)OCCCC [Butyl heptanoate] | High | –
9 | C=C(C)C1CC=C(C)C(OC(=O)CC)C1 (centres unmarked) [Carvyl propionate] | – | MIC50 (fungi; [4]): 5 mM
10 | O=C(O)C=Cc1ccccc1 [Cinnamic acid] | – | MIC [1, 5]: 148 µg/mL (≈ 999 µM); MIC (ppm) [1, 6]: 148 ppm
11 | CC(C)c1ccc(CO)cc1 [Cumic alcohol] | – | MIC (ppm) [1, 5]: 450 ppm; MIC (ppm) [1, 6]: 450 ppm
12 | CCCCCCCCCCOC(C)=O [Decyl acetate] | High | fungicidal activity at 30° C. (fungi): no fungicidal activity; fungicidal activity when heated to 50° C. (fungi): significant fungicidal activity; effect on yeast growth at low temperature [2, 7]: little effect; effect on yeast growth at low temperature ([2]; FIGS. 23, 24, adjunct alone 0-200 ppm, low temperature): little effect; prevention of yeast growth by low levels of the adjunct [2]: prevention of yeast growth
13 | CCCCCCCCCCOC(=O)CC [Decyl propionate] | High | –
14 | C=C(C)C1CCC(C)C(O)C1 (centres unmarked) [Dihydrocarveol] | – | MIC (ppm) [1, 5]: 540 ppm
15 | CCCCCCCC=CC(=O)OCC [Ethyl 2-decenoate] | High | –
16 | C=CCCCCCCCCC(=O)OCC [Ethyl 10-undecenoate] | High | –
17 | CCCCCCCCCC(=O)OCC [Ethyl decanoate] | High | –
18 | CCCCCCCCC(=O)OCC [Ethyl nonanoate] | High | –
19 | CC(=O)OC/C=C(\C)CCC=C(C)C [Geranyl acetate] | High | –
20 | CC(=O)CC/C=C(\C)CCC=C(C)C [Geranyl acetone] | High | –
21 | CCCC(=O)OC/C=C(\C)CCC=C(C)C [Geranyl butyrate] | High | –
22 | CCC(=O)OC/C=C(\C)CCC=C(C)C [Geranyl propionate] | High | –
23 | CCCCCCCOC(=O)CCC [Heptyl butyrate] | High | –
24 | CCCCCCOC(=O)CCCCC [Hexyl hexanoate] | High | –
25 | CCCCCC(=O)OCCC(C)C [Isoamyl hexanoate] | High | –
26 | CCCCCCCCCCCC(=O)O [Lauric acid] | High | MIC50 (fungi; [3]): 20 µg/mL
27 | CCCCCCCCCCCCO [Lauric alcohol] | High | MIC50 (fungi; [4]): 0.1 mM; MIC50 in ppm (in brackets under the mM value) (fungi; [4]): (18.6 ppm; effect on yeast growth at low temperature [2, 7]: little effect; prevention of yeast growth by low levels of the adjunct [2]: prevention of yeast growth
28 | CCCCCCCCCCCC=O [Lauric aldehyde] | High | MIC50 (fungi; [4]): 0.2 mM; MIC50 in ppm (in brackets under the mM value) (fungi; [4]): (36 ppm

Row | Compound | Importance (fungi) | also measured
29 | CCCCCCCCCC(=O)OC [Methyl decanoate] | High | –
30 | CCCCCCCCCCCC(=O)OC [Methyl laurate] | High | –
31 | CCCCCCCCC(=O)OC [Methyl nonanoate] | High | –
32 | CCCCCCCCCCC(=O)OC [Methyl undecanoate] | High | –
33 | CC=CCCCCCCCC(=O)OC [Methyl-9-undecenoate] | High | –
34 | CCCCCCCCCCCCCC(=O)O [Myristic acid] | High | –
35 | CC1(C)C2CC=C(CO)C1C2 (centres unmarked) [Myrtenol] | – | MIC (ppm) [1, 5]: 137 ppm; MIC (ppm) [1, 6]: 137 ppm
36 | CC1CCC(C(C)C)C(O)C1 (centres unmarked) [Neomenthol] | – | MIC (ppm) [1, 5]: 156 ppm
37 | C=CC(C)(O)CCC=C(C)CCC=C(C)C (centres unmarked) [Nerolidol] | High | –
38 | CC(C)=CCC/C(C)=C\COC(=O)C(C)C [Neryl isobutyrate] | High | –
39 | CCCCCCCCCOC(C)=O [Nonyl acetate] | High | –
40 | CCCCCCCCOC(=O)CCC [Octyl butyrate] | High | –
41 | CCCCCC(=O)OCCc1ccccc1 [Phenethyl hexanoate] | High | –
42 | CC(=O)OCc1ccc2c(c1)OCO2 [Piperonyl acetate] | – | MIC [1, 5]: 242 µg/mL; MIC (ppm) [1, 6]: 242 ppm
43 | CC=CC=CC=O [Sorbic aldehyde (2,4-hexadienal)] | – | MIC (ppm) [1, 5]: 86 ppm
44 | CCCCCCCCCCCCC=O [Tridecanal] | High | –
45 | CCCCCCCCCCCCC(=O)O [Tridecanoic acid] | High | –
46 | CCCCCCCCCCCCCO [Tridecanol] | High | –
47 | O=C1CCCCCCCCCCCCCCO1 [w-Pentadecalactone] | – | MIC50 (fungi; [4]): 60 mM
48 | C/C(C=O)=C\c1ccccc1 [α-Methyl-trans-cinnamaldehyde] | – | MIC (ppm) [1, 5]: 58.4 ppm
49 | C=C1CC/C=C(\C)CC[C@@H]2[C@@H]1CC2(C)C [β-Caryophylene] | – | MIC50 (fungi; [4]): 70 mM
50 | CCCCCC1CCC(=O)O1 (centres unmarked) [γ-Nonanoic lactone] | – | MIC (ppm) [1, 5]: 63 ppm
51 | CCCCCCCC1CCC(=O)O1 (centres unmarked) [γ-Undecalactone] | – | MIC (ppm) [1, 5]: 28 ppm
52 | CCCC1CCCC(=O)O1 (centres unmarked) [δ-Octalactone] | – | MIC (ppm) [1, 5]: 568 ppm
53 | Tolualdehyde | – | MIC (ppm) [1, 5]: 240 ppm
54 | methyl decenoate | – | fungicidal activity at 30° C. (fungi): no fungicidal activity; fungicidal activity when heated to 50° C. (fungi): significant fungicidal activity
55 | w-6-Hexadecalactone | – | MIC50 (fungi; [4]): 50 mM
